Data reported in patent publication EP0449346B1, “4-Piperidinyl-ergoline derivatives” (PHARMACIA S.p.A., priority 1990, dated 1991).

Test system: rats with unilateral 6-hydroxy dopamine-induced lesion of the dopaminergic nigrostriatal patway
Test: Turning behaviour in rats: induction of controlateral turnings after a single treatment
Assay type: in vivo
Source text: More in particular, the ergoline derivatives according to the invention are active as antiparkinson agents, owing to their dopaminergic activity. The dopaminergic activity is indicated e.g. by an induction of controlateral turnings in rats with unilateral 6-hydroxy dopamine-induced lesion of the dopaminergic nigrostriatal patway. [According to the principles of N.Ungerstedt et al., Brain Research 24,485 (1970)].

[1] = single treatment, 0.5 mg/Kg s.c., in 6 hours
[2] = single treatment, 0.5 mg/Kg s.c., turning rats / treated rats

SMILES | Number of controlateral turns (X) in 6 hours [1] | Turning rats Treated rats [2] | Number of controlateral turns (X) in 6 hours (rat, in vivo, sc, 1 mg/kg) | Turning rats Treated rats (rat, in vivo, sc, 1 mg/kg)
CN1C(=O)CC(C[C@@H]2C=C3c4cccc5[nH]cc(c45)C[C@H]3N(C)C2)CC1=O [Example 5, 1-Methyl-4-[(6-methylergolen-Δ9,10-8β-yl)methyl]-piperidin-2,6-dione] | 1830 | 5/5 |  | 
CC(C)C[C@H]1C(=O)N2CCC[C@H]2[C@]2(O)O[C@](NC(=O)[C@@H]3C=C4c5cccc6[nH]c(Br)c(c56)C[C@H]4N(C)C3)(C(C)C)C(=O)N12 [Bromocriptine, bromocriptine, reference compound] |  |  | 1920 | 6/9
CN1C[C@H](CC2CC(=O)NC(=O)C2)C=C2c3cccc4[nH]cc(c34)C[C@H]21 [Example 1, 4-[(6-Methylergolen-Δ9,10-8β-yl)methyl]-piperidin-2,6-dione] | 1540 | 4/4 |  | 
